Patent US9493455B2, “Azaindole derivatives as inhibitors of protein kinases” (ORIBASE PHARMA, priority 2012, dated 2016)
pEC50: −log10 of the molar value.

Key:
HUVEC = experiment: In vitro cell proliferation assay (MTT); assay type: cell-based; details: Homo sapiens, 72 h
Description: Cancer cell lines (5×10^3 cells per well) or HUVEC (1×10^4 cells per well) or HRMEC (1×10^4 cells per well) were distributed in 96-well plates and incubating in duplicate with escalating concentrations (10 nM to 3 μM) of compounds for 72 hr. Cell proliferation was measured using MTT (3 [4,5-dimethylthiazol-2-yl]-2,5-diphenyltetrazolium bromide).

HRMEC = experiment: In vitro cell proliferation assay (MTT); assay type: cell-based; details: 72 h
How it was run: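 Growth is assessed with the tetrazolium dye MTT following a 72 hr incubation with compound spanning 10 nM up to 3 μM, each dose tested twice on 5×10^3 plated cells per well.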

A549 = experiment: In vitro cell proliferation assay (MTT); assay type: cell-based; details: Homo sapiens, A549, 72 h
How it was run: (§1)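 MTT read-out of proliferation after 72 hr compound exposure; 5×10^3 cells/well, duplicate wells, dose range 10 nM–3 μM.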

H1975 = experiment: In vitro cell proliferation assay (MTT); assay type: cell-based; details: Homo sapiens, NCI-H1975, 72 h
How it was run: as §1

BxPC-3 = experiment: In vitro cell proliferation assay (MTT); assay type: cell-based; details: Homo sapiens, BXPC-3, 72 h
How it was run: as §1

HT29 = experiment: In vitro cell proliferation assay (MTT); assay type: cell-based; details: Homo sapiens, HT-29, 72 h
How it was run: as §1

HepG2 = experiment: In vitro cell proliferation assay (MTT); assay type: cell-based; details: Homo sapiens, HepG2, 72 h
How it was run: as §1

BRAF = target: T1, BRAF (Homo sapiens, UniProt P15056); experiment: In vitro kinase assay (Z′-LYTE); assay type: biochemical; details: compound 100 nM; ATP 100 μM; read-out: % of inhibition of the kinase compared to the control
T1 construct: purchased Invitrogen
How it was run: (§2)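 Percent inhibition is derived from a coupled-enzyme fluorescence format in which unphosphorylated FRET peptide is preferentially proteolysed. Compounds are screened once at 100 nM (10 μM against ABL T315I) in 1% DMSO, with ATP at its apparent Km.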

ABL T315I = target: T2, ABL T315I (Homo sapiens, UniProt P00519, T315I); experiment: In vitro kinase assay (Z′-LYTE); assay type: biochemical; details: read-out: % of inhibition of the kinase compared to the control
T2 construct: purchased Invitrogen
How it was run: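 Inhibition measured at a single dose, 100 nM, or 10 μM for ABL T315I. Z′-LYTE format with ATP at apparent Km; emission ratio of donor to acceptor quantifies phosphorylation.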

VEGFR1 = target: T3, VEGFR1 (Homo sapiens, UniProt P17948); experiment: In vitro kinase assay (Z′-LYTE); assay type: biochemical; details: read-out: % of inhibition of the kinase compared to the control
T3 construct: purchased Invitrogen
How it was run: as §2

SRC = target: T4, SRC (Homo sapiens, UniProt P12931); experiment: In vitro kinase assay (Z′-LYTE); assay type: biochemical; details: read-out: % of inhibition of the kinase compared to the control
T4 construct: purchased Invitrogen
How it was run: as §2

PDGFRA (PDGFR alpha) = target: T5, PDGFRA (PDGFR alpha) (Homo sapiens, UniProt P16234); experiment: In vitro kinase assay (Z′-LYTE); assay type: biochemical; details: read-out: % of inhibition of the kinase compared to the control
T5 construct: purchased Invitrogen
How it was run: as §2

EGFR (ErbB1) T790M L858R = target: T6, EGFR (ErbB1) T790M L858R (Homo sapiens, UniProt P00533, L858R/T790M); experiment: In vitro kinase assay (Z′-LYTE); assay type: biochemical; details: read-out: % of inhibition of the kinase compared to the control
T6 construct: purchased Invitrogen
How it was run: as §2

FGFR2 = target: T7, FGFR2 (Homo sapiens, UniProt P21802); experiment: In vitro kinase assay (Z′-LYTE); assay type: biochemical; details: read-out: % of inhibition of the kinase compared to the control
T7 construct: purchased Invitrogen
How it was run: as §2

KDR (VEGFR2) = target: T8, KDR (VEGFR2) (Homo sapiens, UniProt P35968); experiment: In vitro kinase assay (Z′-LYTE); assay type: biochemical; details: read-out: % of inhibition of the kinase compared to the control
T8 construct: purchased Invitrogen
How it was run: as §2

FGFR1 = target: T9, FGFR1 (Homo sapiens, UniProt P11362); experiment: In vitro kinase assay (Z′-LYTE); assay type: biochemical; details: read-out: % of inhibition of the kinase compared to the control
T9 construct: purchased Invitrogen
How it was run: as §2

PDGFRB = target: T10, PDGFRB (Homo sapiens, UniProt P09619); experiment: In vitro kinase assay (Z′-LYTE); assay type: biochemical; details: read-out: % of inhibition of the kinase compared to the control
T10 construct: purchased Invitrogen
How it was run: as §2

ABL = target: T11, ABL (Homo sapiens, UniProt P00519); experiment: In vitro kinase assay (Z′-LYTE); assay type: biochemical; details: read-out: % of inhibition of the kinase compared to the control
T11 construct: purchased Invitrogen

EGFR (ErbB1) = target: T12, EGFR (ErbB1) (Homo sapiens, UniProt P00533); experiment: In vitro kinase assay (Z′-LYTE); assay type: biochemical; details: read-out: % of inhibition of the kinase compared to the control
T12 construct: purchased Invitrogen
How it was run: as §2

HuH7 = experiment: In vitro cell proliferation assay (MTT); assay type: cell-based; details: Homo sapiens, Huh-7, 72 h
How it was run: as §1

HuCCT1 = experiment: In vitro cell proliferation assay (MTT); assay type: cell-based; details: Homo sapiens, HuCCT-1, 72 h
How it was run: as §1

MDA-MB-231 = experiment: In vitro cell proliferation assay (MTT); assay type: cell-based; details: Homo sapiens, MDA-MB-231, 72 h
How it was run: as §1

HuH6 Clone 5 = experiment: In vitro cell proliferation assay (MTT); assay type: cell-based; details: HUH-6-clone5, 72 h
How it was run: as §1

PC-3 = experiment: In vitro cell proliferation assay (MTT); assay type: cell-based; details: Homo sapiens, PC-3, 72 h
How it was run: as §1

HeLa = experiment: In vitro cell proliferation assay (MTT); assay type: cell-based; details: Homo sapiens, 72 h
How it was run: as §1

Caki-2 = experiment: In vitro cell proliferation assay (MTT); assay type: cell-based; details: Homo sapiens, CAKI-2, 72 h
How it was run: as §1

T4 sequence (P12931 whole entry): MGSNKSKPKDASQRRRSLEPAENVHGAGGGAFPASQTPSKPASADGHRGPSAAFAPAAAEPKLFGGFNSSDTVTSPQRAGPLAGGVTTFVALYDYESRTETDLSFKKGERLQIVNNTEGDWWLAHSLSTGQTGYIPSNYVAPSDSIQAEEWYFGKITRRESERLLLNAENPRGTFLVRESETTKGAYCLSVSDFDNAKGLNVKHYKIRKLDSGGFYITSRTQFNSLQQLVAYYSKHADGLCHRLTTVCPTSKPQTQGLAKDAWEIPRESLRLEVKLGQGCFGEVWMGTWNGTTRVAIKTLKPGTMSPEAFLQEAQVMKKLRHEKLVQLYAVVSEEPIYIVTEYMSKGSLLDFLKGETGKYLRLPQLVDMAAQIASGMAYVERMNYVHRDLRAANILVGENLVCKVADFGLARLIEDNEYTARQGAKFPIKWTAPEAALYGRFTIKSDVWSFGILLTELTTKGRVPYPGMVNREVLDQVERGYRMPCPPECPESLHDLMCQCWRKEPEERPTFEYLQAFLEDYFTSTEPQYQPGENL
T8 sequence (P35968 20-1356): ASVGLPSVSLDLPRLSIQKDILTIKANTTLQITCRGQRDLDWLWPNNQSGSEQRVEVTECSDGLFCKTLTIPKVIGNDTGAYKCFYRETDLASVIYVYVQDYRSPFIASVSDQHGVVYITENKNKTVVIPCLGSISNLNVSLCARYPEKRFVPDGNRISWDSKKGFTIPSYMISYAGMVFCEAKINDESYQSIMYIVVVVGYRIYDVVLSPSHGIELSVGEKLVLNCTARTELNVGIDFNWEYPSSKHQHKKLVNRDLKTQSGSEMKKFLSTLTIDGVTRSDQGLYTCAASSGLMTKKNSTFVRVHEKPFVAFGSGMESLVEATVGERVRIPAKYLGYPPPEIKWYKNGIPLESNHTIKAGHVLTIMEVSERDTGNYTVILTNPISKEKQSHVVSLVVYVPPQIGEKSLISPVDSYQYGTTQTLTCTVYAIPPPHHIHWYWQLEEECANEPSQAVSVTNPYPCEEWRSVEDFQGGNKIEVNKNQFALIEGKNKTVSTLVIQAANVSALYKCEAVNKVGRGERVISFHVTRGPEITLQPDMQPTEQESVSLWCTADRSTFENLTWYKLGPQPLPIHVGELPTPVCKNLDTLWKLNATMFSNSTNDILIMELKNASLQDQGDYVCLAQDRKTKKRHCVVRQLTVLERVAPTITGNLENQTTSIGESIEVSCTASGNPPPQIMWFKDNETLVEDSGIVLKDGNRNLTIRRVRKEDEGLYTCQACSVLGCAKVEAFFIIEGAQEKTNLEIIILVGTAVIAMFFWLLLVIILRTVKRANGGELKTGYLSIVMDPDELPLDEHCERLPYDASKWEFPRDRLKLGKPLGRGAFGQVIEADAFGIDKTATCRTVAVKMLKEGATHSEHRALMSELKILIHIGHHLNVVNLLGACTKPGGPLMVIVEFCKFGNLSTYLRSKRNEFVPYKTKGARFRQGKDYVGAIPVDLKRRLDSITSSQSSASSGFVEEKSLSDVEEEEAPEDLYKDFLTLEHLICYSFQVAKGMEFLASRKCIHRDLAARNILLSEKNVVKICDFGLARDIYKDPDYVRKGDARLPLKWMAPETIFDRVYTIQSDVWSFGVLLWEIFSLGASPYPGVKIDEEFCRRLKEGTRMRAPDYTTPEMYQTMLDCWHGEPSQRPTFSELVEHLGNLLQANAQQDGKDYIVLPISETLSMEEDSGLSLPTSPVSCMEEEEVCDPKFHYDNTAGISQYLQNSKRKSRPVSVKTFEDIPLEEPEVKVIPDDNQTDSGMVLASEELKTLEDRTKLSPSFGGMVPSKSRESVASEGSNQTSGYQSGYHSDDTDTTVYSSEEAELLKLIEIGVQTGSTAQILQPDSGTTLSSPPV
T1 sequence (P15056 whole entry): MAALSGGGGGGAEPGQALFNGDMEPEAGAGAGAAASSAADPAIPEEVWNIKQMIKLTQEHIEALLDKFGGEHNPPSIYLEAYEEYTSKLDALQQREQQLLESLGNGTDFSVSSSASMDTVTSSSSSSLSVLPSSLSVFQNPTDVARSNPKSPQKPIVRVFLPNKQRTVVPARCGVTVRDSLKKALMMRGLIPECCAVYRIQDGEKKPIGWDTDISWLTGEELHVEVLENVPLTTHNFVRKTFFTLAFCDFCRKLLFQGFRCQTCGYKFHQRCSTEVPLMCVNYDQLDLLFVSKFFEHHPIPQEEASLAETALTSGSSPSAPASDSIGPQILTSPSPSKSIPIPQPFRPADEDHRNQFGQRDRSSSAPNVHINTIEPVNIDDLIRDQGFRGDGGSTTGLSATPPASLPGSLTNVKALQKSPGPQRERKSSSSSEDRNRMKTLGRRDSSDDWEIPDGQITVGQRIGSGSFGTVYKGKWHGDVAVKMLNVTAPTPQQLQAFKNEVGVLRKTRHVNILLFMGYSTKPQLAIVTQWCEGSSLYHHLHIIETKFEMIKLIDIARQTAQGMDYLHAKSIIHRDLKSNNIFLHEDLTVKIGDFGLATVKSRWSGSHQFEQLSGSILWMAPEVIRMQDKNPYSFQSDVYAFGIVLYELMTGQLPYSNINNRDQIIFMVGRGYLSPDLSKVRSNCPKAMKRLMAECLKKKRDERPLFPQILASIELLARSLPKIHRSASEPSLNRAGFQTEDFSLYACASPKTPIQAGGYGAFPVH
T3 sequence (P17948 27-1338): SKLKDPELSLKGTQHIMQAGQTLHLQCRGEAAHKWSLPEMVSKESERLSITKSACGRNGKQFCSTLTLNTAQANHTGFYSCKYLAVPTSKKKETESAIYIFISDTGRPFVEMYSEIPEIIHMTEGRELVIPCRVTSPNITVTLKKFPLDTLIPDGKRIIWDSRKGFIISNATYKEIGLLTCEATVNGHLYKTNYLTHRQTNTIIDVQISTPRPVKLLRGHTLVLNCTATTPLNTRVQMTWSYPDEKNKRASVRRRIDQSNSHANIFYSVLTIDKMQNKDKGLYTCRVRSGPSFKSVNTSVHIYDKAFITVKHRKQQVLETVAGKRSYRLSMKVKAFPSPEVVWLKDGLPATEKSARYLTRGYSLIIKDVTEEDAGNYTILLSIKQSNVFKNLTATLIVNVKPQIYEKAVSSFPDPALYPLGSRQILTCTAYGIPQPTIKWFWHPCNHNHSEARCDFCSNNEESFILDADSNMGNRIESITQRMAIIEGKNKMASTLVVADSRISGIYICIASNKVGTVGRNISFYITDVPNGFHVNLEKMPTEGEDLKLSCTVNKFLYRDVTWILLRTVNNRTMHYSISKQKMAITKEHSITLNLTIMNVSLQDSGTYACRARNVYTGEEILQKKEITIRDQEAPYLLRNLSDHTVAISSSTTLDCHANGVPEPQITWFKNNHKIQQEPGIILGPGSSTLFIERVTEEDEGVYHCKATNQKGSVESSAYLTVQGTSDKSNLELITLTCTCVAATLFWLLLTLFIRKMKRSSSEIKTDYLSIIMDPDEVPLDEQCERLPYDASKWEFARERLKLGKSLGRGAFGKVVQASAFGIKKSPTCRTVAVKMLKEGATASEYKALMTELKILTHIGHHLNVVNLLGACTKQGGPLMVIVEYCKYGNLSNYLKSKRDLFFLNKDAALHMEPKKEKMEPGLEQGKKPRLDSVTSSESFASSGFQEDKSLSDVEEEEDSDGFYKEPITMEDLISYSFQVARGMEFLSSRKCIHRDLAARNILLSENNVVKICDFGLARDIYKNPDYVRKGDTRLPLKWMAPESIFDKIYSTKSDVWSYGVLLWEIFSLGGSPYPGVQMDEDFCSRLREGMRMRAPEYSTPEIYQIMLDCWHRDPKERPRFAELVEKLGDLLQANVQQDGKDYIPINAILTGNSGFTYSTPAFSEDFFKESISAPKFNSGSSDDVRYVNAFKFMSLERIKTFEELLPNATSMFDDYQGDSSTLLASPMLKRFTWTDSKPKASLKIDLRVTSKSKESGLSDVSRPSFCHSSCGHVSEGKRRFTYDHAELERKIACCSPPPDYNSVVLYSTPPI
T5 sequence (P16234 24-1089): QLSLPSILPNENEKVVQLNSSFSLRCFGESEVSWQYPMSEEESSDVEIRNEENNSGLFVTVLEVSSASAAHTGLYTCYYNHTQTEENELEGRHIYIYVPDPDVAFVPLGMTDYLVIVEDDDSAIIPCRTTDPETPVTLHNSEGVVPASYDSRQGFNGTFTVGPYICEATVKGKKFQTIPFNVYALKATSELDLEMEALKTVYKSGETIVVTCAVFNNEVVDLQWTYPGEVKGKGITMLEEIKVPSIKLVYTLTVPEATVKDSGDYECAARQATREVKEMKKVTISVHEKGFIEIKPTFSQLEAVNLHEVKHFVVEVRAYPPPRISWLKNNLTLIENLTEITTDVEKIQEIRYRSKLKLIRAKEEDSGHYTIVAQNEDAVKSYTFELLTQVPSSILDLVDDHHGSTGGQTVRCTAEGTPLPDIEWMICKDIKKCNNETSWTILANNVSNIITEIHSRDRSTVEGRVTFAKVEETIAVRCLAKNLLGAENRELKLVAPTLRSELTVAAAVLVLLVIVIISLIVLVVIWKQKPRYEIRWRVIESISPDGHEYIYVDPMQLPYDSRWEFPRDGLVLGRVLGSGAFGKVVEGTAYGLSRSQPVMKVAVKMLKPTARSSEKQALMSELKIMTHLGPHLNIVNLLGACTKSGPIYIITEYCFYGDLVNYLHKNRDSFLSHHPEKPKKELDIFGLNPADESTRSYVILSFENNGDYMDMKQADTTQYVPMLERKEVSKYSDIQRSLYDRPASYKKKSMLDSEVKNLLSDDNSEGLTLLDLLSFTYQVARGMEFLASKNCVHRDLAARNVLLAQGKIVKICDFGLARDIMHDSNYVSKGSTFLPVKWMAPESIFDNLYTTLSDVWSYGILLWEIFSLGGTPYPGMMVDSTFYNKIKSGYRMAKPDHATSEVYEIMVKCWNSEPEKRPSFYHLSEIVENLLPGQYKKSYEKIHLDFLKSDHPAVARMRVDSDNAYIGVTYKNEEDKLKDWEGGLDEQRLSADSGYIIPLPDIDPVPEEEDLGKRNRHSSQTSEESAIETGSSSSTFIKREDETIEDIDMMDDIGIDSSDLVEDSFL

COC(=O)c1cc2cc(NCc3cc(NC(=O)c4ccc5[nH]nnc5c4)ccc3C)cnc2[nH]1 [OR0616]
pEC50 (HUVEC): ≤ 6.00
pEC50 (HRMEC): ≤ 6.00
pEC50 (A549): ≤ 6.00
pEC50 (H1975): ≤ 6.00
pEC50 (BxPC-3): ≤ 6.00
pEC50 (HT29): ≤ 6.00
pEC50 (HepG2): ≤ 6.00
inhibition at 0.1 µM (BRAF): ≥ 50%
inhibition at 10 µM (ABL T315I): < 50%
inhibition at 0.1 µM (VEGFR1): < 50%
inhibition at 0.1 µM (SRC): < 50%
inhibition at 0.1 µM (PDGFRA (PDGFR alpha)): ≥ 50%
inhibition at 0.1 µM (EGFR (ErbB1) T790M L858R): < 50%
inhibition at 0.1 µM (FGFR2): < 50%
inhibition at 0.1 µM (KDR (VEGFR2)): < 50%
inhibition at 0.1 µM (FGFR1): < 50%
inhibition at 0.1 µM (PDGFRB): ≥ 50%
inhibition at 10 µM (ABL): ≥ 50%
inhibition at 0.1 µM (EGFR (ErbB1)): < 50%

COC(=O)c1cc2cc(NCc3cc(NC(=O)c4cncc(C(F)(F)F)c4)ccc3C)cnc2[nH]1 [OR0604]
pEC50 (HuH7): 6.00 to 7.00
pEC50 (HuCCT1): ≤ 6.00
pEC50 (HUVEC): 6.00 to 7.00
pEC50 (A549): 6.00 to 7.00
pEC50 (H1975): ≤ 6.00
pEC50 (BxPC-3): 6.00 to 7.00
pEC50 (MDA-MB-231): ≥ 7.00
pEC50 (HuH6 Clone 5): ≤ 6.00
pEC50 (PC-3): ≤ 6.00
pEC50 (HT29): ≤ 6.00
pEC50 (HepG2): ≥ 7.00
inhibition at 0.1 µM (BRAF): ≥ 50%
inhibition at 10 µM (ABL T315I): < 50%
inhibition at 0.1 µM (VEGFR1): < 50%
inhibition at 0.1 µM (SRC): ≥ 50%
inhibition at 0.1 µM (PDGFRA (PDGFR alpha)): ≥ 50%
inhibition at 0.1 µM (EGFR (ErbB1) T790M L858R): < 50%
inhibition at 0.1 µM (FGFR2): < 50%
inhibition at 0.1 µM (KDR (VEGFR2)): ≥ 50%
inhibition at 0.1 µM (FGFR1): < 50%
inhibition at 0.1 µM (PDGFRB): ≥ 50%
inhibition at 10 µM (ABL): ≥ 50%
inhibition at 0.1 µM (EGFR (ErbB1)): ≥ 50%

COC(=O)c1cc2cc(NCc3cc(NC(=O)c4ccc(CN5CCNCC5)c(C(F)(F)F)c4)ccc3C)cnc2[nH]1 [OR0613]
pEC50 (HuH7): 6.00 to 7.00
pEC50 (HuCCT1): ≤ 6.00
pEC50 (HUVEC): ≥ 7.00
pEC50 (A549): 6.00 to 7.00
pEC50 (H1975): 6.00 to 7.00
pEC50 (BxPC-3): 6.00 to 7.00
pEC50 (MDA-MB-231): ≥ 7.00
pEC50 (HuH6 Clone 5): ≤ 6.00
pEC50 (PC-3): ≤ 6.00
pEC50 (HT29): ≥ 7.00
pEC50 (HepG2): ≥ 7.00
inhibition at 0.1 µM (BRAF): ≥ 50%
inhibition at 10 µM (ABL T315I): ≥ 50%
inhibition at 0.1 µM (VEGFR1): < 50%
inhibition at 0.1 µM (SRC): ≥ 50%
inhibition at 0.1 µM (PDGFRA (PDGFR alpha)): ≥ 50%
inhibition at 0.1 µM (EGFR (ErbB1) T790M L858R): ≥ 50%
inhibition at 0.1 µM (FGFR2): ≥ 50%
inhibition at 0.1 µM (KDR (VEGFR2)): ≥ 50%
inhibition at 0.1 µM (FGFR1): ≥ 50%
inhibition at 0.1 µM (PDGFRB): < 50%
inhibition at 10 µM (ABL): ≥ 50%
inhibition at 0.1 µM (EGFR (ErbB1)): ≥ 50%

COC(=O)c1cc2cc(NC(=O)c3cc(NC(=O)c4ccc(CN5CCN(C)CC5)c(C(F)(F)F)c4)ccc3C)cnc2[nH]1 [OR0744]
pEC50 (HuH7): 6.00 to 7.00
pEC50 (HuCCT1): ≤ 6.00
pEC50 (HUVEC): 6.00 to 7.00
pEC50 (HRMEC): 6.00 to 7.00
pEC50 (A549): 6.00 to 7.00
pEC50 (H1975): ≤ 6.00
pEC50 (MDA-MB-231): 6.00 to 7.00
pEC50 (HuH6 Clone 5): ≤ 6.00
pEC50 (HeLa): 6.00 to 7.00
pEC50 (HT29): 6.00 to 7.00
pEC50 (HepG2): 6.00 to 7.00
inhibition at 0.1 µM (BRAF): ≥ 50%
inhibition at 0.1 µM (SRC): ≥ 50%
inhibition at 0.1 µM (PDGFRA (PDGFR alpha)): ≥ 50%
inhibition at 0.1 µM (EGFR (ErbB1) T790M L858R): ≥ 50%
inhibition at 0.1 µM (FGFR2): ≥ 50%
inhibition at 0.1 µM (KDR (VEGFR2)): ≥ 50%
inhibition at 0.1 µM (EGFR (ErbB1)): ≥ 50%

CCN(CC)CCNC(=O)c1c(C)[nH]c(/C=C2\C(=O)Nc3ccc(F)cc32)c1C [Sunitinib, reference compound]
pEC50 (BxPC-3): ≤ 6.00
pEC50 (Caki-2): ≤ 6.00

COC(=O)c1cc2cc(NCc3cc(NC(=O)c4ccc5[nH]ccc5c4)ccc3C)cnc2[nH]1 [OR0617]
pEC50 (HuCCT1): ≤ 6.00
pEC50 (HUVEC): 6.00 to 7.00
pEC50 (HRMEC): ≤ 6.00
pEC50 (A549): ≤ 6.00
pEC50 (H1975): ≤ 6.00
pEC50 (BxPC-3): ≤ 6.00
pEC50 (HT29): ≤ 6.00
pEC50 (HepG2): 6.00 to 7.00
inhibition at 0.1 µM (BRAF): ≥ 50%
inhibition at 10 µM (ABL T315I): < 50%
inhibition at 0.1 µM (VEGFR1): < 50%
inhibition at 0.1 µM (SRC): ≥ 50%
inhibition at 0.1 µM (PDGFRA (PDGFR alpha)): ≥ 50%
inhibition at 0.1 µM (EGFR (ErbB1) T790M L858R): < 50%
inhibition at 0.1 µM (FGFR2): < 50%
inhibition at 0.1 µM (KDR (VEGFR2)): ≥ 50%
inhibition at 0.1 µM (FGFR1): < 50%
inhibition at 0.1 µM (PDGFRB): < 50%
inhibition at 10 µM (ABL): ≥ 50%
inhibition at 0.1 µM (EGFR (ErbB1)): < 50%
